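Where inhibition never reached the appropriate level, the endpoint shown equals the highest concentration tested. Otherwise, values were interpolated linearly from a five-concentration, 48-hour dose response in 96-well plates. GI50 marks 50% less growth.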 Calls of active or inactive are those of the source. Rule as the data show it: active = GI50 up to about 1.1 µM and inactive = higher.
Legend:
Assay in all cases: inhibition of tumour cell growth, NCI panel, 48 h
CAKI-1 = tested on: CAKI-1
NCI-H522 = tested on: NCI-H522
SK-OV-3 = tested on: SK-OV-3
EKVX = tested on: EKVX
RPMI-8226 = tested on: RPMI-8226
HT-29 = tested on: HT-29
DMS-114 = tested on: DMS-114
SN12C = tested on: SN12C
SW-620 = tested on: SW-620
HCT-116 = tested on: HCT-116
M19-MEL = tested on: M19-MEL
MOLT-4 = tested on: MOLT-4
A549 = tested on: A549
COLO 205 = tested on: COLO 205
NCI-H460 = tested on: NCI-H460
SF-295 = tested on: SF-295
SF-539 = tested on: SF-539
LOX IMVI = tested on: LOX IMVI

Measured: GI50

N#C/C(N)=N/c1ccccc1
inactive: CAKI-1 > 100 µM | NCI-H522 > 100 µM | SK-OV-3 > 100 µM | EKVX > 100 µM | RPMI-8226 > 100 µM | HT-29 > 100 µM | DMS-114 16.9 µM | SN12C > 100 µM | SW-620 > 100 µM | HCT-116 > 100 µM | M19-MEL > 100 µM | MOLT-4 > 100 µM | A549 > 100 µM | COLO 205 > 100 µM | NCI-H460 > 100 µM | SF-295 > 100 µM | SF-539 > 100 µM | LOX IMVI 68.7 µM

CC1(C)O[C@@H](CC/C=C/CO)[C@H](CC/C=C/CO)O1
inactive: CAKI-1 > 100 µM | NCI-H522 > 100 µM | SK-OV-3 > 100 µM | EKVX > 100 µM | RPMI-8226 > 100 µM | HT-29 > 100 µM | DMS-114 > 100 µM | SN12C > 100 µM | SW-620 > 100 µM | HCT-116 > 100 µM | M19-MEL > 100 µM | MOLT-4 > 100 µM | A549 > 100 µM | COLO 205 > 100 µM | NCI-H460 > 100 µM | SF-295 > 100 µM | SF-539 > 100 µM | LOX IMVI > 100 µM

C=C1C(=O)c2cc3c(cc2C(c2cc(OC)c(OC)c(OC)c2)[C@@H]1C(=O)O)OCO3 (some centres undefined)
inactive: CAKI-1 54.2 µM | NCI-H522 28.3 µM | SK-OV-3 42.6 µM | EKVX > 100 µM | RPMI-8226 39.3 µM | HT-29 37.2 µM | DMS-114 36.7 µM | SN12C 43.1 µM | SW-620 53.2 µM | HCT-116 48.4 µM | M19-MEL 49.1 µM | MOLT-4 37.9 µM | A549 80.4 µM | COLO 205 39.3 µM | NCI-H460 37.1 µM | SF-295 38.3 µM | SF-539 63.7 µM | LOX IMVI 43.6 µM

Cc1ccc(NC(=O)CC2SC(Nc3ccc(Cl)cc3)=NC2=O)cc1C (centres undefined)
inactive: CAKI-1 21.2 µM | NCI-H522 7.85 µM | SK-OV-3 > 49 µM | EKVX 17.5 µM | RPMI-8226 6.47 µM | HT-29 18.2 µM | DMS-114 21 µM | SN12C 17.9 µM | SW-620 7.08 µM | HCT-116 18.1 µM | M19-MEL 17.7 µM | MOLT-4 2.38 µM | A549 18.2 µM | COLO 205 13.2 µM | NCI-H460 13.5 µM | SF-295 > 44 µM | SF-539 20.8 µM | LOX IMVI 19.4 µM

CCCCCCCCCCCCCC(=O)CC(=O)c1c(O)cccc1O
inactive: CAKI-1 34 µM | NCI-H522 22.7 µM | SK-OV-3 38.6 µM | EKVX 30.6 µM | RPMI-8226 25.5 µM | HT-29 27.2 µM | DMS-114 21.5 µM | SN12C 33.6 µM | SW-620 23.6 µM | HCT-116 43.6 µM | M19-MEL 30.5 µM | MOLT-4 21.5 µM | A549 51.1 µM | COLO 205 22.5 µM | NCI-H460 36.1 µM | SF-295 42.4 µM | SF-539 49.5 µM | LOX IMVI 19.6 µM

O=C(O)C(C(=O)C(=O)C(C(=O)O)c1ccc(Cl)cc1)c1ccc(Cl)cc1 (centres undefined)
inactive: CAKI-1 4.13 µM | NCI-H522 1.88 µM | SK-OV-3 5.89 µM | EKVX 3.27 µM | RPMI-8226 2.13 µM | HT-29 3.72 µM | DMS-114 2.24 µM | SN12C 2.94 µM | SW-620 3.98 µM | HCT-116 3.1 µM | M19-MEL 3.39 µM | MOLT-4 1.72 µM | A549 2.9 µM | COLO 205 6.44 µM | NCI-H460 3.46 µM | SF-295 8.65 µM | SF-539 2.15 µM | LOX IMVI 2.56 µM

O=C(O)CCN(CCCN(CCC(=O)O)CCC(=O)O)CCC(=O)O
inactive: CAKI-1 > 100 µM | NCI-H522 > 100 µM | SK-OV-3 > 100 µM | EKVX > 100 µM | RPMI-8226 > 100 µM | HT-29 > 100 µM | DMS-114 > 100 µM | SN12C > 100 µM | SW-620 > 100 µM | HCT-116 > 100 µM | M19-MEL > 100 µM | MOLT-4 > 100 µM | A549 > 100 µM | COLO 205 > 100 µM | NCI-H460 > 100 µM | SF-295 > 100 µM | SF-539 > 100 µM | LOX IMVI > 100 µM

CCCCCCCCCCCCCP(=O)(OC)OC
inactive: CAKI-1 18 µM | NCI-H522 13.6 µM | SK-OV-3 19 µM | EKVX 19.4 µM | RPMI-8226 24.3 µM | HT-29 18.4 µM | DMS-114 21.6 µM | SN12C 20.2 µM | SW-620 17.7 µM | HCT-116 19.6 µM | M19-MEL 19.3 µM | MOLT-4 19.1 µM | A549 21.2 µM | COLO 205 20 µM | NCI-H460 17.1 µM | SF-295 21.5 µM | SF-539 17 µM | LOX IMVI 19.3 µM

Source: ChEMBL document CHEMBL1201862, “PubChem BioAssay data set” (2004)
